Test results from patent US6207404A, “Coumarin-based CYP3A fluorescent assay reagents” (Gentest Corporation, priority 1999, dated 2001).

Columns and labels:
CYP3A4 = settings: in words; Crespi et al. 1997; cited from earlier work
[1] = test system: panel of cDNA-expressed human P450 enzymes; settings: Ono et al. (1996); cited from earlier work
human CYP3A4 [2] = target: T1, human CYP3A4 (Homo sapiens, UniProt P08684); experiment: biochemical; settings: 37° C., 20 minutes
[3] = Solubility noted in enzyme kinetics table; assay type: physicochemical; settings: at >200 uM
human CYP3A4 [4] = target: T1, human CYP3A4; experiment: Enzyme kinetics of substrate turnover with cDNA-expressed CYP3A4 (fluorometric); assay type: biochemical
Experimental: The evaluation of compounds of Formula I were initially performed by measuring the kinetics of turnover using cDNA-expressed CYP3A4. In most instances, Vmax and Km values are important for the optimization of the assay conditions and for setting the parameters for inhibition experiments. Fluorometric assays for the turnover of compounds of Formula I by CYP3A4 were performed based on a modification of the method by Crespi et al. Anal Biochem. 248, 188-190, (1997), (described below).
Example Compound I. Assays were conducted in 96 well microtiter plates (Corning COSTAR, cat. no. 3915). The substrate, compound I, was prepared in acetonitrile. After cofactors addition, the plates were prewarmed to 37° C. Incubations were initiated by the addition of prewarmed buffer and enzyme. The enzymes were commercially available, baculovirus/insect cell expressed human CYP3A4 (SUPERSOMES®, GENTEST Corporation). The amount of enzyme added per well was 1 pmole. […] Fluorescence per well was measured using a BMG FLUOstar Model 403 plate scanner controlled with an IBM-compatible computer. The metabolite was measured using an excitation wavelength of 410 nm and emission wavelength of 538 nm. Data was exported and analyzed using an Excel spreadsheet. The activity was quantified by comparing to a standard curve of 7-hydroxy-4-trifluoromethyl coumarin.

[5] = test system: panel of cDNA-expressed human P450 enzymes; experiment: Selectivity of dealkylation in a panel of cDNA-expressed human P450 enzymes; assay type: biochemical
Text: The selectivity of various P450 isoforms for dealkylation of compound I was examined using a panel of commercially available human cDNA-expressed enzymes. A substrate that is selective for a single P450 isoform (substrate is catalytically turned over by a single P450 isoform) is a desirable trait in that its activity may be examined within a heterogeneous mixture of enzymes, for example, in human liver microsomes. […] Compound I is therefore a more useful substrate for probing CYP3A activity in a heterogeneous mixture than the previous substrate BzRes. These advantages permit the specific detection of low levels of a preselected cytochrome P450 enzyme (e.g., 3A4) contained in various types of samples, e.g., tissue samples, microsomes, and so forth.
Example Compound I. Assays were conducted as described in (1) above except: incubation time was 20 min.; enzymes were commercially available, baculovirus/insect cell expressed human P450s (SUPERSOMES®, GENTEST Corporation); and the amount of enzyme added per well was 10 pmole with the exception of 2.5 pmole for CYP3A enzymes.

human CYP3A4 [6] = target: T1, human CYP3A4
[7] = Quantum yield of the fluorescent product; assay type: physicochemical; settings: relative to the product of BzRes
other human P450s = settings: Code et al. 1997; Morse and Lu 1998; cited from earlier work
human CYP2B6 = settings: Code et al. 1997; Morse and Lu 1998; cited from earlier work

T1 sequence (P08684 whole entry): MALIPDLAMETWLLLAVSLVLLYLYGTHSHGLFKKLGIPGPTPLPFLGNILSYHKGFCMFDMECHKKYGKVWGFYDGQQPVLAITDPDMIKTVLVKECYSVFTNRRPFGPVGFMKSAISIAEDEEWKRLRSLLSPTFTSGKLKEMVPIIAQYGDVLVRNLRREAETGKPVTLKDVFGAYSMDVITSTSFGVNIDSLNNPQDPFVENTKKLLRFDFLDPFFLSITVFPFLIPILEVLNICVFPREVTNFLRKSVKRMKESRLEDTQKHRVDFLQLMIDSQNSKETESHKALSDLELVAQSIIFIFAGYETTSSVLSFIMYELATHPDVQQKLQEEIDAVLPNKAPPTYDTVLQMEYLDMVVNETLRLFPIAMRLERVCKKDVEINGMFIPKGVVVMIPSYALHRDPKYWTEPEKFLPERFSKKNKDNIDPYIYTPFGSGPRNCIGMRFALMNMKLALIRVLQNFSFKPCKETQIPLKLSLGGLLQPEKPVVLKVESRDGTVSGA

O=c1ccc2nc3ccc(OCc4ccccc4)cc3oc-2c1 [Benzyloxyresorufin, 7-benzyloxyresorufin]
enzymatic turnover (CYP3A4): low enzymatic turnover | specificity (CYP3A4): poor specificity | metabolism by other human cytochromes P450 [1]: significantly metabolized by other human cytochromes P450

CC[C@H]1OC(=O)[C@H](C)[C@@H](O[C@H]2C[C@@](C)(OC)[C@@H](O)[C@H](C)O2)[C@H](C)[C@@H](O[C@@H]2O[C@H](C)C[C@H](N(C)C)[C@H]2O)[C@](C)(O)C[C@@H](C)C(=O)[C@H](C)[C@@H](O)[C@]1(C)O [Erythromycin]
IC50 (human CYP3A4 [2]; CYP3A4 IC50, substrate BzRes, substrate BzRes): 1700 nM | IC50 (human CYP3A4 [2]; CYP3A4 IC50, substrate I, substrate compound I (100 uM)): 4070 nM

O=c1cc(C(F)(F)F)c2ccc(OCc3ccccc3)cc2o1 [Compound I, 7-Benzyloxy-4-trifluoromethylcoumarin]
solubility (remark to Km >200 uM) [3]: exceeds solubility | Vmax (at 40 uM) (human CYP3A4 [4]; cDNA-expressed CYP3A4, at 40 uM substrate): 1.5 min⁻¹ | Km at 0.75 h (human CYP3A4 [4]; human, cDNA-expressed CYP3A4, 1 pmole/well, 37° C., 45 minutes): > 200 µM | selectivity of dealkylation in panel of human P450 enzymes (FIG. 1) ([5]; 20 min, 10 pmole/well (2.5 pmole for CYP3A enzymes)): selective for CYP3A4 | rank of CYP1A1 in dealkylation of the substrate ([5]; CYP1A1): second best enzyme | IC50 values with compound I as the substrate compared with BzRes (human CYP3A4 [6]): tend to yield lower IC50 values

O=c1cc(C(F)(F)F)c2ccc(O)cc2o1 [Compound II, 7-hydroxy-4-trifluoromethylcoumarin]
quantum yield of product relative to the product of benzyloxyresorufin [7]: greater quantum yield

CCOc1ccc2c(C(F)(F)F)cc(=O)oc2c1 [7-Ethoxy-4-trifluoromethylcoumarin]
O-dealkylation by other human P450s (other human P450s): O-dealkylated | O-dealkylation by human CYP2B6 (human CYP2B6): O-dealkylated
